# Experimental data taken from ChEMBL document CHEMBL4261482, “Development of small molecular compounds targeting cancer stem cells” (Medchemcomm, 2017).
# Columns and labels:
# Lu-99 cell line [1] = test: Cytotoxicity against human LU99 cells assessed as decrease in cell viability after 72 hrs by CCK8 assay; format: functional, cell-based; conditions: Lu-99, 72 h
# Daudi = test: Cytotoxicity against human Daudi cells assessed as decrease in cell viability after 72 hrs by CCK8 assay; format: functional, cell-based
# MKN-1 = test: Cytotoxicity against human MKN1 cells assessed as decrease in cell viability after 72 hrs by CCK8 assay; format: functional, cell-based; conditions: MKN-1, 72 h
# HCT-116 = test: Cytotoxicity against human HCT116 cells assessed as decrease in cell viability after 72 hrs by CCK8 assay; format: functional, cell-based; conditions: HCT-116, 72 h
# MIA PaCa-2 = test: Cytotoxicity against human MIAPaCa2 cells assessed as decrease in cell viability after 72 hrs by CCK8 assay; format: functional, cell-based; conditions: MIA PaCa-2, 72 h
# UMUC3 = test: Cytotoxicity against human UM-UC-3 cells assessed as decrease in cell viability after 72 hrs by CCK8 assay; format: functional, cell-based; conditions: UMUC3, 72 h
# MKN-45 = test: Cytotoxicity against human MKN45 cells assessed as decrease in cell viability after 72 hrs by CCK8 assay; format: functional, cell-based; conditions: MKN-45, 72 h
# DU-4475 = test: Cytotoxicity against human DU4475 cells assessed as decrease in cell viability after 72 hrs by CCK8 assay; format: functional, cell-based; conditions: DU-4475, 72 h
# A549 = test: Cytotoxicity against human A549 cells assessed as decrease in cell viability after 72 hrs by CCK8 assay; format: functional, cell-based; conditions: A549, 72 h
# CWR22R = test: Cytotoxicity against human 22Rv1 cells assessed as decrease in cell viability after 72 hrs by CCK8 assay; format: functional, cell-based; conditions: 22Rv1, 72 h
# T47D = test: Cytotoxicity against human T47D cells assessed as decrease in cell viability after 72 hrs by CCK8 assay; format: functional, cell-based
# HepG2 = test: Cytotoxicity against human HepG2 cells assessed as decrease in cell viability after 72 hrs by CCK8 assay; format: functional, cell-based; conditions: HepG2, 72 h
# MDA-MB-231 = test: Cytotoxicity against human MDA-MB-231 cells assessed as decrease in cell viability after 72 hrs by CCK8 assay; format: functional, cell-based; conditions: MDA-MB-231, 72 h
# Lu-99 cell line [2] = test: Antitumor activity against human LU99 cells xenografted in BALB/cSLC-nu/nu mouse assessed as tumor growth inhibition at 40 mg/kg, iv administered in liposomal formulation on day 1, 4, 8, 11, 15, 18 measured on day 22 relative to control; format: functional; conditions: Lu-99, iv, read-out: TGI
# Lu-99 cell line [3] = test: Antitumor activity against human LU99 cells xenografted in BALB/cSLC-nu/nu mouse assessed as tumor growth inhibition at 100 mg/kg, po qd administered for 14 days measured on day 15 relative to control; format: functional; conditions: Lu-99, po, read-out: TGI
smiles,measurement,setting,value
Cc1cc(O)c(-c2ccc([C@@H](C)CN(C)C)cc2)c2c1[nH]c(=O)c1sccc12,IC50,Lu-99 cell line [1],7.6 nM
same,IC50,Daudi,25 nM
same,IC50,MKN-1,38 nM
same,IC50,HCT-116,33 nM
same,IC50,MIA PaCa-2,30 nM
same,IC50,UMUC3,32 nM
same,IC50,MKN-45,39 nM
same,IC50,DU-4475,53 nM
same,IC50,A549,31 nM
same,IC50,CWR22R,50 nM
same,IC50,T47D,72 nM
same,IC50,HepG2,19 nM
same,IC50,MDA-MB-231,73 nM
same,inhibition in vivo at 40 mg/kg,Lu-99 cell line [2],110%
same,inhibition in vivo at 100 mg/kg,Lu-99 cell line [3],113%
